Data reported in patent publication US10106519B2, “3-phenyl-7-hydroxy-isocoumarins as macrophage migration inhibitory factor (MIF) inhibitors” (The Provost, Fellows, Foundation Scholars, & the Other …, priority 2014, dated 2018).
“Also recorded” adds a separate entry of the source. Blank lines part the entries; values can stand above or below the molecule they belong to.

Legend:
MIF tautomerase = target: T1, MIF tautomerase (Homo sapiens, UniProt P14174); assay: MIF tautomerase inhibition assay; assay type: biochemical; details: structure activity relationship studies (FIG. 10)
T1 construct: host or cells: E. coli BL21
T1 sequence (P14174 2-115 limits assumed): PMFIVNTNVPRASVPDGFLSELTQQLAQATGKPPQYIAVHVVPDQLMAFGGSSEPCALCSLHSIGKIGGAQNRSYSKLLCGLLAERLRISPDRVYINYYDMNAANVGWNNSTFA
Procedure: Human recombinant MIF was purified as per Bernhagen et al. (Biochemistry, 1994. 33(47): p. 14144-55). Briefly, BL21 E. coli cells expressing the pET11b-MIF construct were grown to an absorbance at 600 nm (OD) of […]. Isopropyl 1-thio-P-D-galactopyranoside (IPTG) (Sigma—cat no. 16758) was added to a final concentration of 1 mM to induce expression of the MIF gene and incubated for another 3 hours. Bacteria were then harvested by centrifugation and the cell pellets were then frozen. Protein purification was then out sourced to Scottish Biomedical, where the bacterial pellets were thawed and resuspended in 3 ml of Tris-buffered saline. The bacteria were then lysed by adding an equivalent number of glass beads and vortexing strongly for 10 minutes. Glass beads were removed by centrifugation at 1000 g for 10 minutes and the bacterial extract was centrifuged at 1000 g for a further 30 minutes. The supernatant was then sterile-filtered through a […] membrane filter and put through a MONO Q anion exchange chromatography column. MIF was eluted using Tris-buffered saline in the first flow-through fractions and pooled and placed on ice. These pooled fractions were then applied to a C8-SepPak reverse phase column. Unbound material was eluted by washing with water and 20% acetonitrile/water. MIF was then eluted using 6 column volumes of 60% acetonitrile/water. This sample was then renatured by dissolving MIF at a concentration of […] in 20 mM sodium phosphate buffer containing 8M urea and 5 mM DTT and dialysed against 20 mM sodium phosphate buffer. […]
L-dopachrome methyl ester was prepared at 2.4 mM through oxidation of L-3,4-dihydroxyphenylalanine methyl ester with sodium periodate. The solution was mixed well and placed at room temperature for 5 minutes before being placed on ice in the dark. 100 ng of rMIF was added to each of the Tautomerase Inhibitors or ISO-1 at a number of concentrations (1, 50 and 100 μM) with substrate. The decrease in absorbance was measured with a spectrophotometer at 475 nm every 10 seconds for 10 minutes.
The rate of the reaction of rMIF and substrate alone was measured over time at 475 nm. This was compared to the rate of this reaction with the addition of 100 μM of each of the inhibitors. Inhibition was calculated as the percentage in the reduction of the rate of change with the addition of the inhibitor averaged over five minutes.

[1] = tested on: LPS induced TNF-α production; assay: Inhibition of LPS induced TNF-α production in RAW 264.7 macrophage cells (ELISA); assay type: cell-based, mouse
Procedure: RAW 264.7 macrophage cells were plated at 1×10^5/ml in 450 μl of medium in a 48 well plate. 16 hours later cells were treated with ISO-1 or Tautomerase Inhibitors at a final concentration of 10, 50 or 100 μM for 30 minutes before stimulation with 100 ng/ml LPS. Supernatants were collected after 20 hours for determination of TNF-α levels. TNF-α levels were determined using a TNF-α specific ELISA (CAT # DY410 R&D Syst).
96 well plates were coated with 50 μl of Capture Antibody ([…]) in PBS and sealed and incubated overnight at 4° C. Plates were then washed three times in 0.05% PBS Tween and plates blotted. Plates were blocked by adding 150 μl of 1% BSA in PBS (Gibco—cat no. 14190-094) to each well and incubated at room temperature for 2 hours. Plates were washed again as previously described. 50 μl of sample or standard was added to each well and incubated for overnight at 4° C. Plates were then washed again as described. 50 μl of the detection Antibody (200 ng/ml) in 1% BSA in PBS was added to each well and incubated for 2 hours at room temperature. Plates were then washed again as described. 50 μl of working concentration of Streptavidin—HRP was added to each well and plates were covered and incubated for 20 minutes at room temperature. 50 μl of substrate solution (One OPD tablet and one urea hydrogen peroxide/buffer tablet were dissolved in 20 ml of water to yield a ready to use buffered solution, Sigma—cat no. 9187-50) was added to each well and incubated for 20 minutes at room temperature. 25 μl of 2N H2SO4 was added to each well to stop the reaction. The optical density of each well was then measured with a spectrophotometer at 450 nm.
Initially the panel of 25 novel potential tautomerase inhibitors was screened in an in-vitro system. In order to do this we exploited the fact that MIF is needed for optimal LPS induced TNF-α production. We therefore reasoned that our potential TIs should be able to inhibit LPS induced TNF-α in RAW macrophage murine cells. RAW macrophage murine cells were plated at 37° C. in a humidified 5% CO2 incubator. 16 hours later the cells were pre-treated with each of the inhibitors at concentration of 100, 50 or 10 μM for 30 minutes 100 ng/ml of LPS was then added to the cells and supernatants were collected after 16 hours and analysed for TNF-α production by ELISA.

[2] = tested on: LPS mediated PGE-2 production; assay: PGE-2 production in LPS treated RAW macrophage cells (ELISA); assay type: cell-based, murine; details: 100 μM inhibitor, 100 ng/ml LPS (FIG. 4)
Procedure: Raw macrophage murine cells were plated at a cell density of 1×10^5 and pre-treated with 100 μM of each of the inhibitors […] for 30 minutes at 37° C. in a humidified 5% CO2 incubator. Raw macrophage cells were then treated with 100 ng/ml of LPS and supernatants were collected after 16 hours at 37° C. in a humidified 5% CO2 incubator and analysed for PGE-2 production. Levels of PGE-2 were measured by ELISA. (CAT # KGE004 R&D Syst).

[3] = tested on: Lewis Lung carcinoma cells (LLC); assay: LLC-GLuc proliferation assay with rMIF; assay type: cell-based, mouse; details: 100 μM inhibitor, 100 ng/ml rMIF, 48 hours (FIG. 5)
Procedure: LLC-GLuc cells were plated in a 6 well plate at a density of 5×10^4 cells/ml in DMEM supplemented with P/S, 10% FCS and L-Glu. After overnight adherence, 100 ng/ml MIF was added along with the inhibitors or DMSO to a total of 1 ml serum free medium. Cells were harvested after 48 hours by trypsinisation and counted in a haemocytometer.
The ability of candidate compounds to reduce cellular proliferation was also examined. For this assay, LLC cells were plated at a cell density of 5×10^4 cells/ml. The cells were then pre-treated with TI 19 or ISO-1 at a concentration of 100 μM. The cells were then treated with 100 ng/ml of recombinant MIF. The cells were incubated at 37° C. in a humidified 5% CO2 incubator and after 48 hours the cells were harvested and counted.

[4] = tested on: Lewis Lung carcinoma cells; assay: Subcutaneous LLC1 tumour model with in vivo tautomerase inhibitor treatment; set-up: species or system C57BL/6 mice; details: 35 mg/kg intraperitoneally 30 min prior to inoculation and twice weekly, day 28 (FIG. 8)
Procedure: Log phase cultures of LLC-1 cells were harvested by trypsinisation and washed three times with sterile phosphate buffered saline (PBS) and resuspended at a cell density of 5×10^5/ml in PBS. Animals were shaved with an electric shaver 24 hours before subcutaneous injection. 5×10^5 Lewis Lung cells were injected subcutaneously into the left flank of C57BL/6 mice of 6-8 weeks. Animals were monitored for the duration of the experiment and tumour measurements were recorded twice weekly with a digital callipers. Tumour volume (mm^3) was calculated as 0.5×L×W^2, where length is representative of the larger tumour diameter and the width represents the smaller tumour diameter. Animals are sacrificed when tumours reach a diameter of 15 mm or if tumours become ulcerated. Tumours are then removed along with the lungs, spleen and liver.
30 minutes prior to LLC-1 inoculation, inhibitors (TI 19/ISO-1) were administered at a concentration of 35 mg/kg in a volume of 100 μl 5% DMSO in sterile PBS. Control groups were given injections of vehicle 5% DMSO in sterile PBS or sterile PBS alone. Animals were treated twice weekly for four weeks.
In order to assess the antitumour activity of the novel tautomerase inhibitors in vivo, a subcutaneous LLC-1 cell model was set up. The subcutaneous model was chosen so that tumours could be easily visualised and measured during the course of the experiment and to allow assessment of the growth of the tumour in real time. Lewis Lung carcinoma cells (5×10^5) were injected sub-cutaneously into the left flank of C57BL/6 mice. Caliper measurements were taken twice weekly and tumour volume (mm^3) was calculated as 0.5×L×W^2. […] The cut off point for this model was when the tumour measured 15 mm in diameter. This model gave us an indication of normal tumour growth in this subcutaneous model. It can be seen from this model that from day 22 to day 28 the size of the tumour grows considerably.
Once it was determined that the enzymatic activity played a role in the growth of tumours, the subcutaneous LLC model was then used to assess the efficiency of the small weight molecular inhibitors. C57/B16 mice were injected intraperitoneally with 35 mg/kg of each of the inhibitors 30 minutes prior to subcutaneous tumour inoculation and again twice weekly for 4 weeks. Animals were monitored daily and tumour measurements taken until the tumour measured 15 mm in diameter.

[5] = tested on: LPS induced TNF-α production; details: RAW 264.7 cell line, previously shown; cited from earlier work
[6] = tested on: circulating levels of TNF-α; details: LPS induced model of murine sepsis; cited from earlier work
PGE-2 = details: increasing concentrations; cited from earlier work
prostate cancer cells = details: cited from earlier work
[7] = comparative analysis, same assay

Compound: COc1cc2c(=O)oc(-c3ccccc3C)cc2cc1C [SDG-51, 3-(2′-methylphenyl)-6-methyl-7-methoxyisocoumarin]
- tautomerase inhibitory activity of analogues, in words (MIF tautomerase): did not significantly inhibit MIF tautomerase

Compound: COC(=O)CC1CC(c2ccc(O)cc2)=NO1 (stereo not shown) [ISO-1, reference compound]
- reduction of TNF-α production ([1]; 100 μM inhibitor 30 minutes before 100 ng/ml LPS (FIG. 2A)): 20%
- reduction of LPS mediated PGE-2 production, in words [2]: significantly reduces
- reduction of MIF induced proliferation, in words [3]: less so; also recorded: reduced the MIF induced proliferation
- reduction in tumour growth / tumour size [4]: over 50%
- TNF-α production induced by LPS, in words [5]: inhibit TNF-α production induced by addition of LPS
- circulating levels of TNF-α, in words [6]: reduce circulating levels of TNF-α
- production of PGE-2, in words (PGE-2): reduce the production of PGE-2 in a dose dependant manner
- cell proliferation, in words (prostate cancer cells): decreased cell proliferation in prostate cancer cells

Compound: Cc1cccc(-c2cc3ccc(O)cc3c(=O)o2)c1 [SDG-47, 3-(3′-methylphenyl)-7-hydroxyisocoumarin]
- tautomerase inhibitory activity of analogues, in words (MIF tautomerase): almost complete inhibition of MIF tautomerase activity

- tautomerase inhibitory activity of analogues, in words (MIF tautomerase): inactivity
Compound: O=c1oc(-c2ccccc2)cc2ccccc12 [SDG-46]

Compound: COc1cc2cc(-c3ccccc3C)oc(=O)c2cc1OC [SDG-53, 3-(2′-methylphenyl)-6,7-dimethoxyisocoumarin]
- tautomerase inhibitory activity of analogues, in words (MIF tautomerase): did not significantly inhibit MIF tautomerase

- tautomerase inhibitory activity of analogues, in words (MIF tautomerase): dramatic loss of inhibitory activity
Compound: Cc1cc2ccccc2c(=O)o1 [SDG-40]

Compound: O=c1oc(-c2ccccc2O)cc2ccccc12 [SDG-50]
- tautomerase inhibitory activity of analogues, in words (MIF tautomerase): dramatic loss in tautomerase inhibition activity

- tautomerase inhibitory activity of analogues, in words (MIF tautomerase): some inhibitory activity
Compound: Cc1cc2cc(-c3ccccc3C)oc(=O)c2cc1O [SDG-52, 3-(2′-methylphenyl)-6-methyl-7-hydroxyisocoumarin]

- tautomerase inhibitory activity of analogues, in words (MIF tautomerase): ineffective as a tautomerase inhibitor
Compound: Cc1ccccc1-c1cc2ccccc2c(=O)[nH]1 [SDG-42]

- inhibition of MIF tautomerase activity, analogues of TI 19 (MIF tautomerase): 86%
Compound: Cc1ccccc1-c1cc2cc(O)c(O)cc2c(=O)o1 [SDG-54, 3-(2′-methylphenyl)-6,7-hydroxyisocoumarin]
- tautomerase inhibitory activity of analogues, in words (MIF tautomerase): almost complete inhibition of MIF tautomerase activity

Compound: COc1ccc2cc(-c3ccccc3C)oc(=O)c2c1 [SDG-23]
- tautomerase inhibitory activity of analogues, in words (MIF tautomerase): did not significantly inhibit MIF tautomerase

- inhibition of MIF tautomerase activity, analogues of TI 19 (MIF tautomerase): > 90%
Compound: Cc1ccccc1-c1cc2ccc(O)cc2c(=O)o1 [SDG-22, 3-(2′-methylphenyl)-7-hydroxyisocoumarin]
- tautomerase inhibitory activity of analogues, in words (MIF tautomerase): very effective inhibitor of MIF tautomerase; also recorded: most effective tautomerase inhibitor identified to date; also recorded: significantly more potent than TI 19
- reduction of TNF-α production, comparative analysis ([1]; LPS stimulated RAW macrophage murine cells, 100 μM (FIG. 11)): 97%
- more effective than ISO-1 in reducing TNF-α production [1, 7]: 80%
- more effective than TI 19 in reducing TNF-α production [1, 7]: 10%
- reduction of TNF-α production, in words ([1]; concentration not given): significant reduction in TNF-α production
